Measurements reported in ChEMBL document CHEMBL4007424, “Design and Synthesis of Enantiomerically Pure Decahydroquinoxalines as Potent and Selective κ-Opioid Receptor Agonists with Anti-Inflammatory Activity in Vivo” (J Med Chem, 2017).
Activity calls are given as the source filed them. The rule behind the calls is not given here.

Columns and labels:
[1] = Plasma concentration in Wistar Han rat at 1 mg/kg, iv measured 1 hr post compound administration; type: ADME, organism-based
Rattus norvegicus [2] = assay: Toxicity in Wistar Han rat assessed as induction of slight lethargy at 5 mg/kg, iv after 1 hr; type: organism-based; conditions: in vivo
[3] = Drug level in Wistar Han rat brain at 1 mg/kg, iv measured 1 hr post compound administration; type: ADME, organism-based; conditions: Wistar Han, brain, read-out: Drug uptake
[4] = Plasma concentration in Wistar Han rat at 1 mg/kg, iv measured 0.25 hrs post compound administration; type: ADME, organism-based
Rattus norvegicus [5] = assay: Toxicity in Wistar Han rat assessed as induction of slight lethargy at 1 mg/kg, iv after 0.25 hrs; type: organism-based; conditions: in vivo
[6] = Ratio of drug level in brain to plasma in Wistar Han rat at 1 mg/kg, iv after 1 hr; type: ADME, organism-based; conditions: read-out: BPR
Mus musculus [7] = assay: (§1) Antiinflammatory activity in oxazolone-induced delayed type hypersensitivity BALB/c mouse model assessed as neutrophil dermal infiltration at 0.6 mg applied topically on ear administered 3 hrs prior to oxazolone challenge on day 7 to 12 post sensitization followed by re-administration of compound on day 13 to 18 without oxazolone challenge measured on day 19 by H and E staining based assay; type: functional
Mus musculus [8] = assay: as §1, with “ear swelling” for “neutrophil dermal infiltration”, “13 (reference value: 666 +/- 28 micrometer)” for “19 by H and E staining based assay”; type: functional
Mus musculus [9] = assay: as §1, with “ear swelling” for “neutrophil dermal infiltration”, “(reference value: 242 +/- 11 micrometer)” for “by H and E staining based assay”; type: functional
Mus musculus [10] = assay: as §1, with “ear weight” for “neutrophil dermal infiltration”, “(reference value: 30.2 +/- 0.7 mg)” for “by H and E staining based assay”; type: functional
Mus musculus [11] = assay: as §1, with “lymphocyte” for “neutrophil”; type: functional
Mus musculus [12] = assay: as §1, with “ear thickness level” for “neutrophil dermal infiltration”; type: functional
Mus musculus [13] = assay: as §1, with “mast cell” for “neutrophil”; type: functional
Mus musculus [14] = assay: as §1, with “hyperplastic epidrmis” for “neutrophil dermal infiltration”; type: functional
Mus musculus [15] = assay: Antiinflammatory activity in arachidonic acid-induced ear dermatitis ICR mouse model assessed as reduction in ear swelling at 0.3 mg administered twice tropically 30 mins prior and 15 mins after arachidonic acid addition measured 60 mins post arachidonic acid challenge relative to control; type: functional
Mus musculus [16] = assay: Antiinflammatory activity in arachidonic acid-induced ear dermatitis ICR mouse model assessed as reduction in ear swelling at 0.1 mg administered twice tropically 30 mins prior and 15 mins after arachidonic acid addition measured 60 mins post arachidonic acid challenge relative to control; type: functional
Mus musculus [17] = assay: Antinociceptive activity in sc dosed mouse model of acetic acid-induced writhing; type: functional
Mus musculus [18] = assay: Antiinflammatory activity in arachidonic acid-induced ear dermatitis ICR mouse model assessed as reduction in ear swelling at 3 mg administered twice tropically 30 mins prior and 15 mins after arachidonic acid addition measured 60 mins post arachidonic acid challenge relative to control; type: functional
Mus musculus [19] = assay: as §1, with “ear weight” for “neutrophil dermal infiltration”, “2.5” for “0.6”, “(reference value: 30.2 +/- 0.7 mg)” for “by H and E staining based assay”; type: functional
Mus musculus [20] = assay: as §1, with “ear weight” for “neutrophil dermal infiltration”, “0.5” for “0.6”, “(reference value: 30.2 +/- 0.7 mg)” for “by H and E staining based assay”; type: functional
Mus musculus [21] = assay: CNS toxicity in sc dosed mouse model of acetic acid-induced writhing assessed as lowest dose causing side effects; type: organism-based; conditions: in vivo
Mus musculus [22] = assay: Antiinflammatory activity in arachidonic acid-induced ear dermatitis ICR mouse model assessed as reduction in ear swelling at 1 mg administered twice tropically 30 mins prior and 15 mins after arachidonic acid addition measured 60 mins post arachidonic acid challenge relative to control; type: functional
[23] = Displacement of [3H]-DTG from sigma 2 receptor in rat liver membranes after 120 mins by scintillation counting; type: cell membranes, Membrane
Mus musculus [24] = assay: Toxicity in arachidonic acid-induced ear dermatitis ICR mouse model assessed as induction of modest to severe behaviour depression at 0.1 mg to 3 mg administered twice tropically 30 mins prior and 15 mins after arachidonic acid addition measured 60 mins post arachidonic acid challenge; conditions: in vivo, topical_or_ocular, 1 h
[25] = biological target: Kappa-type opioid receptor (Cavia porcellus, UniProt P41144); assay: Displacement of [3H]U-69,593 from kappa-type opioid receptor in guinea pig brain membranes after 120 mins by solid scintillation counting; type: cell membranes, Membrane
[26] = Displacement of [3H]DPDPE from delta-type opioid receptor in guinea pig brain membranes after 120 mins by solid scintillation counting; type: cell membranes, Cavia porcellus, Membrane
[27] = biological target: Kappa-type opioid receptor (Homo sapiens, UniProt P41145); assay: Agonist activity at recombinant human kappa-type opioid receptor expressed in HEK293 cells after 30 mins by [35S]GTPgammaS binding assay; type: functional, cell-based
Mus musculus [28] = assay: Antiinflammatory activity in arachidonic acid-induced ear dermatitis ICR mouse model assessed as reduction in ear swelling at 3 mg administered tropically 30 mins prior and 15 min after arachidonic acid addition measured 60 mins post arachidonic acid challenge relative to control; type: functional

Chain of Kappa-type opioid receptor (Homo sapiens, UniProt P41145) (P41145 whole entry): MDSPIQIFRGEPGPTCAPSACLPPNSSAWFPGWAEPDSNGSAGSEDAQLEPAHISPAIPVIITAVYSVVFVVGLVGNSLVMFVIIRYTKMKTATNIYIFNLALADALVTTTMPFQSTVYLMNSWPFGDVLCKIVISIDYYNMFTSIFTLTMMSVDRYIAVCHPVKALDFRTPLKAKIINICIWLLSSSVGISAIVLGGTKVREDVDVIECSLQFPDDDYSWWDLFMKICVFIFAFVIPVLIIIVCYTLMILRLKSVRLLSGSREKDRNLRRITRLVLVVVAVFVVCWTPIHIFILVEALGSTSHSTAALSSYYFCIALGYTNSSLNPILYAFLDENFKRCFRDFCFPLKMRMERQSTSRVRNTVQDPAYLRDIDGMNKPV
Chain of Kappa-type opioid receptor (Cavia porcellus, UniProt P41144) (P41144 whole entry): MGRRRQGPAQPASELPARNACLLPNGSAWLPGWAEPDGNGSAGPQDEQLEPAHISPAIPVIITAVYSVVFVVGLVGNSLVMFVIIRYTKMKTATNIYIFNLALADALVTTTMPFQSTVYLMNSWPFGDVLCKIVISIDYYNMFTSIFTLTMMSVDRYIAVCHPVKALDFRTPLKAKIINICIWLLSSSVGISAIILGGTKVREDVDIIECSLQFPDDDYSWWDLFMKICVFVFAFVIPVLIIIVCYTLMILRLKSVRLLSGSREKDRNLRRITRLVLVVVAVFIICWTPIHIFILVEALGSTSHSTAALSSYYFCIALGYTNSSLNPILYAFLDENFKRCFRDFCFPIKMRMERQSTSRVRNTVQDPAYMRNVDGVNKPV

**Q.** For COC(=O)N1CCN(C(=O)Cc2ccc(Cl)c(Cl)c2)[C@@H]2[C@@H](N(C)C)CCC[C@@H]21.Cl, which concentration at 1 h [1] is on record?
**A.** Its concentration at 1 h is 186 ng/mL.

**Q.** What about the Activity (Rattus norvegicus [2]) of the same molecule?
**A.** The Activity was “Toxic”.

**Q.** And the concentration at 1 h [3]?
**A.** The concentration at 1 h was 101 ng/g.

**Q.** What about the concentration at 0.25 h [4] of the same molecule?
**A.** Its concentration at 0.25 h is 355 ng/mL.

**Q.** And the Activity (Rattus norvegicus [5])?
**A.** The Activity was “Toxic”.

**Q.** And the Kp at 1 h [6]?
**A.** The Kp at 1 h was 0.54.

**Q.** With C[C@]12CCC(=O)C=C1CC[C@@H]1[C@@H]2[C@@H](O)C[C@@]2(C)[C@H]1CC[C@]2(O)C(=O)CO [HYDROCORTISONE] as the molecule, how does the Activity (Mus musculus [7]) read?
**A.** The Activity was “Active”.

**Q.** And the Activity (Mus musculus [8])?
**A.** Its Activity is 332 um.

**Q.** And the Activity (Mus musculus [9])?
**A.** The Activity was 66 um.

**Q.** And the Activity (Mus musculus [10])?
**A.** The Activity was 17.2 mg.

**Q.** What about the Activity (Mus musculus [11]) of the same molecule?
**A.** The Activity was “Active”.

**Q.** What about the Activity (Mus musculus [12]) of the same molecule?
**A.** Its Activity is “Active”.

**Q.** What about the Activity (Mus musculus [13]) of the same molecule?
**A.** The Activity was “Active”.

**Q.** What about the Activity (Mus musculus [14]) of the same molecule?
**A.** The Activity was “Active”.

**Q.** Which “inhibition (INH)” value (Mus musculus [15]) does the source give for COC(=O)N1CCN(C(=O)Cc2ccc(Cl)c(Cl)c2)[C@@H]2[C@@H](N3CCCC3)CCC[C@@H]21 here?
**A.** The value was 27%.

**Q.** And the “inhibition (INH)” value (Mus musculus [16])?
**A.** Its value is 23%.

**Q.** And the ED50 (Mus musculus [17])?
**A.** The ED50 was 0.26 mg/kg.

**Q.** And the “inhibition (INH)” value (Mus musculus [18])?
**A.** Its value is 51%.

**Q.** And the Activity (Mus musculus [19])?
**A.** Its Activity is 28.2 mg.

**Q.** And the Activity (Mus musculus [20])?
**A.** The Activity was 27.5 mg.

**Q.** What about the MTC (Mus musculus [21]) of the same molecule?
**A.** Its MTC is 0.06 mg/kg.

**Q.** What about the “inhibition (INH)” value (Mus musculus [22]) of the same molecule?
**A.** The value was 27%.

**Q.** What about the Ki [23] of the same molecule?
**A.** The Ki was 252 nM.

**Q.** Which “inhibition (INH)” value (Mus musculus [15]) does the source give for COC(=O)N1CCN(C(=O)Cc2ccc(F)c(Cl)c2)[C@@H]2[C@@H](N3CC[C@H](F)C3)CCC[C@@H]21 here?
**A.** Its value is 40%.

**Q.** What about the “inhibition (INH)” value (Mus musculus [16]) of the same molecule?
**A.** The value was 25%.

**Q.** What about the “inhibition (INH)” value (Mus musculus [18]) of the same molecule?
**A.** Its value is 60%.

**Q.** What about the Activity (Mus musculus [24]) of the same molecule?
**A.** The Activity was “Toxic”.

**Q.** What about the Ki [25] of the same molecule?
**A.** Its Ki is 0.56 nM.

**Q.** What about the Ki [26] of the same molecule?
**A.** The Ki was 74 nM.

**Q.** And the “inhibition (INH)” value (Mus musculus [22])?
**A.** Its value is 66%.

**Q.** And the EC50 [27]?
**A.** Its EC50 is 0.4 nM.

**Q.** For COc1ccc2c(c1)c(CC(=O)O)c(C)n2C(=O)c1ccc(Cl)cc1 [INDOMETHACIN], which “inhibition (INH)” value (Mus musculus [28]) is on record?
**A.** The value was 38%.

**Q.** What about the “inhibition (INH)” value (Mus musculus [16]) of the same molecule?
**A.** The value was 38 - 65%.

**Q.** What about the “inhibition (INH)” value (Mus musculus [18]) of the same molecule?
**A.** The value was 38 - 65%.
